Measurements as given in patent publication US9815841B2, “Compounds” (GLAXOSMITHKLINE INTELLECTUAL PROPERTY DEVELOPMENT LIMITED, priority 2014, dated 2017).

Target: T1, purified recombinant 6HIS-Tev-LRRK2 (1326-2527) (Homo sapiens, UniProt Q5S007)
T1 construct: A LRRK2 cDNA encoding residues 1326-2527 was received from Dundee University; made in house; host or cells: Spodoptera frugiperda (Sf9) insect cells, baculovirus (pFB-HTb)
T1 sequence (Q5S007 1326-2527): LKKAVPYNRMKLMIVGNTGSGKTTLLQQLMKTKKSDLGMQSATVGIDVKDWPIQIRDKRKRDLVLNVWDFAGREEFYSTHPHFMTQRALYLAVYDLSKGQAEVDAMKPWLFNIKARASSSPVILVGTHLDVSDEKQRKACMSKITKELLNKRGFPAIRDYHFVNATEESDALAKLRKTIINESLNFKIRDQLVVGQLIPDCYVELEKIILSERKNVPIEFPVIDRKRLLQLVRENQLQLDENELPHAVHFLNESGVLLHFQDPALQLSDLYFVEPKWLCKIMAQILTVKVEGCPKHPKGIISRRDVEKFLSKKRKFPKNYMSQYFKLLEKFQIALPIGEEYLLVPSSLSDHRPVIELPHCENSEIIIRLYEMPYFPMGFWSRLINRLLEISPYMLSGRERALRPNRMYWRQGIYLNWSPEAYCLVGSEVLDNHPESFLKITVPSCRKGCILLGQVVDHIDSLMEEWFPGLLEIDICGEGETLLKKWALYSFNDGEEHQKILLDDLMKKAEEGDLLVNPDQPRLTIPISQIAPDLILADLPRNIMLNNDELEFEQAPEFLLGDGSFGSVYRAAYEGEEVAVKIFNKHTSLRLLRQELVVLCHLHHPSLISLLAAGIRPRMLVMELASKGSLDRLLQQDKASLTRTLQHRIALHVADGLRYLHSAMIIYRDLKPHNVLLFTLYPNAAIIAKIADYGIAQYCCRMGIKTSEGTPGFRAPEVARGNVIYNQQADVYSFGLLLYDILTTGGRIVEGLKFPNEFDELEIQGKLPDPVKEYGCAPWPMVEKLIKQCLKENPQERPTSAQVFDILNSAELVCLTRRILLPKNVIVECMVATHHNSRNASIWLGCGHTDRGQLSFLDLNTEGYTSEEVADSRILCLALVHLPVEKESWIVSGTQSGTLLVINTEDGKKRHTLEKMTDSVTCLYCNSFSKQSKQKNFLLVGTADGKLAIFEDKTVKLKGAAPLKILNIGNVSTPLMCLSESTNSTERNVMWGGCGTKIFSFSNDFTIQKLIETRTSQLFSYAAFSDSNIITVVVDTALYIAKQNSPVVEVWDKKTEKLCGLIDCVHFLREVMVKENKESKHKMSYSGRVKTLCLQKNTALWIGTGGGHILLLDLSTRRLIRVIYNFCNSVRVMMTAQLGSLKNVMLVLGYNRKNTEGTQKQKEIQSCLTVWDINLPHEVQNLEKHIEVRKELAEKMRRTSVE
Assay: Recombinant LRRK2 enzyme peptide substrate TR-FRET assay
Assay type: biochemical
Conditions: 60 nM LRRK2 (1326-2527), 1 uM Biotin-longer LRRKtide, 10 uM ATP; read-out: recombinant LRRK2 enzyme peptide substrate TR-FRET assay (pIC50) (converted)
Method: This gene fragment was subcloned into pFB-HTb (Invitrogen) using BamHI and NotI restriction sites. The LRRK2 plasmid was recombined into the baculovirus genome according to the BAC-to-BAC protocol described by Invitrogen. Transfection into Spodoptera frugiperda (Sf9) insect cells was performed using Cellfectin (Invitrogen), according to the manufacturer's protocol to generate P1 and P2 baculovirus stocks.
Sf9 cells were grown in HyClone SFX (Thermo Scientific) growth media at 27° C., 80 rpm in shake flask until of a sufficient volume to inoculate a bioreactor. […] The cells were infected with P2 Baculovirus at a multiplicity of infection (MOI) of 3. The cultivation was continued for a 48 hour expression phase. The infected cells were removed from the growth media by centrifugation at 2500 g using a Sorvall RC 3C Plus centrifuge at 2500 g for 20 minutes. The cell pellet was immediately frozen and subsequently supplied for purification.
A 260 g pellet was allowed to thaw in a water bath at 27° C. with 800 ml lysis buffer/buffer A (50 mm Tris-HCl pH 8.5, 300 mM NaCl, 1 mm DTT, 10% glycerol, 1 ml/L calbiochem complete protease inhibitor cocktail and benzonase (50 ul/800 ml)) before being dounce homogenised on ice using 20 strokes per 100 ml. The suspension was packed in ice and sonicated at 50% amplitude for 3 min 10 sec on/off using a ¾″ probe. The suspension was then centrifuged at 100,000 g for 90 min, at 4° C.
The lysate (700 ml) was decanted from the insoluble pellet and contacted for 3 h at 4 C with 10 ml His bind Ni NTA resin by end over end mixing. The resin was recovered by centrifugation, 3000 g, 5 min at 4 C, and packed in an XK16 column. The column was then washed with 10 column volumes buffer A, 10 column volumes buffer B (buffer A+1M NaCl) and 10 column volumes buffer C (buffer A+20 mM imidazole). The column was then eluted with 15 column volumes buffer D (buffer A+300 mM imidazole) collecting 2 ml fractions. All washes and elution were conducted at 4 ml/min.
Fractions identified by SDS-PAGE as containing protein of interest were pooled and loaded directly onto a 320 ml SEC Superdex 200 pg column that was pre-equilibrated with buffer E (50 mM Tris-HCl pH 8.5, 300 mM NaCl, 10% glycerol, 1 mM DTT). The column was loaded and eluted with 1.2 column volumes buffer E at 2 ml/min collecting 2 ml fractions. Fractions identified by SDS-PAGE as containing protein of interest were tested for activity.
Production of Biotin-Longer LRRKtide
The resulting crude peptide was cleaved from the resin using a 95:2.5:2.5 mix of trifluoroacetic acid:triisopropylsilane:water.
Recombinant LRRK2 Enzyme Peptide Substrate TR-FRET Assay
Assay Protocol • 1. A 10 mM test compound was dissolved in 100% DMSO and serially diluted 1 in 4. 100 nL was then added to a 384 well low volume black plate, excluding columns 6 and 18. 100 nL of DMSO was added to columns 6 and 18 as controls wells. […] Test plates were then incubated for 30 minutes at room temperature. • 3. 3 uL ‘substate solution’ containing 2 uM Biotin-longer LRRKtide peptide substrate and 20 uM ATP was added to all wells of the plate using a multidrop combi dispenser giving a final assay concentration of 1 uM Biotin-longer LRRKtide and 10 uM ATP. Test plates were then incubated for 2 hours at room temperature. (Incubation may vary depending on rate and linearity of reaction with different enzyme batches). • 4. […] Data is analysed using ActivityBase software (IDBS). Dilutions and concentrations of reagents determined on a batch to batch basis

Row | Structure (SMILES) | IC50 [nM]
1 | CCOc1nc(Nc2cc(F)c(C(=O)N3CCOCC3)cc2OC)nc2[nH]ccc12 [Example E2, (4-((4-ethoxy-7H-pyrrolo-[2,3-d]-pyrimidin-2-yl)amino)-2-fluoro-5-methoxyphenyl)(morpholino)methanone] | 7.94
2 | CCOc1nc(Nc2ccc(C(=O)N3CCOCC3)cc2OC)nc2[nH]ccc12 [Example E1, (4-((4-ethoxy-7H-pyrrolo-[2,3-d]-pyrimidin-2-yl)amino)-3-methoxyphenyl)(morpholino)methanone] | 12.6
3 | CCOc1nc(Nc2ccc(C(=O)N3CCC(N4CCN(C)CC4)CC3)cc2OC)nc2[nH]ccc12 [Example E4, (4-((4-ethoxy-7H-pyrrolo-[2,3-d]pyrimidin-2-yl)amino)-3-methoxyphenyl)(4-(4-methylpiperazin-1-yl)-piperidin-1-yl)-methanone] | ≤ 10
4 | CCOc1nc(Nc2ccc(C(=O)N3CCN(C)CC3)cc2OC)nc2[nH]ccc12 [Example E3, (4-((4-ethoxy-7H-pyrrolo-[2,3-d]-pyrimidin-2-yl)amino)-3-methoxyphenyl)(4-methylpiperazin-1-yl)-methanone] | 7.94
5 | CCOc1nc(Nc2ccc(C(=O)N3CCOCC3)cc2)nc2[nH]ccc12 [Example E9, (4-((4-ethoxy-7H-pyrrolo-[2,3-d]pyrimidin-2-yl)amino)phenyl)(morpholino)methanone] | ≤ 10

Further lines, results first:

Row | IC50 [nM] | Structure (SMILES)
6 | ≤ 10 | CCOc1nc(Nc2ccc(C(=O)N3CCN(C)CC3)cc2OC)nc2[nH]cc(C)c12 [Example E31, (4-((4-ethoxy-5-methyl-7H-pyrrolo-[2,3-d]pyrimidin-2-yl)amino)-3-methoxyphenyl)(4-methylpiperazin-1-yl)methanone]
7 | ≤ 10 | CCOc1nc(Nc2ccc(C(=O)N3CCOC[C@@H]3C)cc2OC)nc2[nH]ccc12 [Example E27, (S)-(4-((4-ethoxy-7H-pyrrolo-[2,3-d]pyrimidin-2-yl)amino)-3-methoxyphenyl)(3-methylmorpholino)methanone]
8 | 10 | CCOc1nc(Nc2ccc(C(=O)N3CCN(C)C[C@H]3C)cc2OC)nc2[nH]ccc12 [Example E40, (R)-(2,4-dimethylpiperazin-1-yl)(4-((4-ethoxy-7H-pyrrolo-[2,3-d]-pyrimidin-2-yl)-amino)-3-methoxyphenyl)methanone]
9 | ≤ 10 | CCOc1nc(Nc2ccc(C(=O)N3CCC4(CC3)CN(C)C4)cc2OC)nc2[nH]ccc12 [Example E13, (4-((4-ethoxy-7H-pyrrolo-[2,3-d]-pyrimidin-2-yl)amino)-3-methoxyphenyl)(2-methyl-2,7-diazaspiro-[3.5]-nonan-7-yl)methanone]
10 | 10 | CCOc1cc(C(=O)N2CCOCC2)ccc1Nc1nc(OCC)c2cc[nH]c2n1 [Example E20, (3-ethoxy-4-((4-ethoxy-7H-pyrrolo-[2,3-d]pyrimidin-2-yl)amino)phenyl)(morpholino)methanone]
11 | 15.8 | CCOc1nc(Nc2ccc(C(=O)N3CCC4(CC3)CC4)cc2OC)nc2[nH]ccc12 [Example E16, (4-((4-ethoxy-7H-pyrrolo-[2,3-d]-pyrimidin-2-yl)amino)-3-methoxyphenyl)(6-azaspiro-[2.5]octan-6-yl)methanone]
12 | 10 | CCOc1nc(Nc2ccc(C(=O)N3CCN(C)CC3)cc2OC(C)C)nc2[nH]ccc12 [Example E24, (4-((4-ethoxy-7H-pyrrolo-[2,3-d]pyrimidin-2-yl)amino)-3-isopropoxyphenyl)(4-methylpiperazin-1-yl)methanone]
